The values that follow are results of earlier work, collected in patent US20080124416A1 (RENAISSANCE HERBS, INC., priority 2006, published 2008).

Each structure is given as a SMILES string.

Data set [1] concerns diabetes (streptozotocin-induced). To be noted: oral, 50 or 100 μg/kg/day for 14 days.
Data set [2] deals with mouse marrow cultures.
In data set [3] the test system is cultured bone cells from the femoral tissues. As to conditions: micromole amounts.
Data set [4] concerns rat cortical and trabecular bone tissues.
Data set [5] deals with osteoblastic MC3T3-E1 cells.
For data set [6] the following is noted: in vivo.
The conditions of data set [7]: in vitro.
Data set [8] deals with hepatic fibrosis. To be noted: 12.5 or 25 mg/kg p.o.
In data set [9] the test system is human lens epithelial (HLE) cells. To be noted: in vitro.

For the compound `CC1=C(/C=C/C(C)=C/C=C/C(C)=C/C=C/C=C(C)/C=C/C=C(C)/C=C/C2=C(C)C[C@@H](O)CC2(C)C)C(C)(C)CCC1` [β-cryptoxanthin], the “symptoms of diabetes (serum glucose, triglycerides, calcium, body weight, bone loss)” value in [1] was “significantly attenuate”. Also, the “osteoblast-like cell formation induced by bone-resorbing factors” value in data set [2] was “potently inhibits”. Besides, the “alkaline phosphatase activity and calcium content” value in data set [3] is given as “significantly increases”. For the same compound, the “decrease in calcium content induced by prostaglandin E2 and parathyroid hormone” value in data set [4] was “completely inhibits”. In [5], the “transcriptional activity, proliferation, cell differentiation and mineralization” value is reported as “stimulates”.
With `CCCCCCCCCCCCCCCC(=O)O[C@@H]1CC(C)=C(/C=C/C(C)=C/C=C/C(C)=C/C=C/C=C(C)/C=C/C=C(C)/C=C/C2=C(C)CCCC2(C)C)C(C)(C)C1` [β-Cryptoxanthinpalmitate], the “human bioavailability of esterified vs free form” value in data set [6] was “comparable”.
As to `CC1=C(/C=C/C(C)=C/C=C/C(C)=C/C=C/C=C(C)/C=C/C=C(C)/C=C/C2=C(C)C[C@@H](O)CC2(C)C)C(C)(C)C[C@H](O)C1` [zeaxanthin], in data set [7], the “antioxidative activity against A2-PE, a pro-oxidant protein in retinal pigment cells” value is “antioxidative activity”. In data set [8], the “TBARS, collagen deposition, 4-hydroxyproline levels, serum ALP and AST” value is recorded as “significantly decreased”; the “activities of glutathione-S-transferase and glutathione” value was “significantly increased”. For the same compound, the “UVB light-induced lipid peroxidation” value in [9] is “inhibits”.
